The values that follow are results of earlier work, collected in US10634592B2, “Process for microextraction and detection of an analyte” (KING FAHD UNIVERSITY OF PETROLEUM AND MINERALS, priority 2015, dated 2020).

The first series relates to cellular glutathione levels. Particulars: prior to cytotoxic effects.
Consider `CC(=O)C(Cl)Cl` [DCP, 1,1-dichloro-2-propanone], for which the “Effect on cellular glutathione levels” value is reported as “reduce cellular glutathione levels”.

Test system in a further series: not given
Conditions: octanol-water partition coefficient.
`CC(=O)C(Cl)(Cl)Cl` [TCP, 1,1,1-trichloro-2-propanone]: the “log Kow” value is 1.12.
Take `ClC(Cl)Cl` [TCM, trichloromethane]: the “log Kow” value is on record as 1.97.
In the case of `BrC(Br)Br` [TBM, tribromomethane], the “log Kow” value is 2.38.
With `ClC(Br)Br` [DBCM, dibromochloromethane], the “log Kow” value was 2.08.
As to `ClC(Cl)Br` [BDCM, bromodichloromethane], the “log Kow” value is listed as 1.88.
On to `CC(=O)C(Cl)Cl` [DCP, 1,1-dichloro-2-propanone], for which the “log Kow” value is reported as 0.20.
